Data on one compound can be found in patent US7642320B2, “Polymer additives with improved permanence and surface affinity” (Ciba Specialty Chemicals Corporation, priority 2001, dated 2010).

A short description of the series: Solubility in polar media (methanol, ambient temperature). Type of series: physicochemical.

On to `CCC(C)(C)c1cc(-n2nc3ccccc3n2)c(O)c(C(C)(C)CC)c1` [Tinuvin ® 328], for which the “Solubility in methanol (wt %)” value is 0.6 wt %.
